Laboratory results taken from patent US20230184770A1, “Exosome Analysis And Brain Tumors” (Institute For Cancer Research d/b/a The Research Institute …, priority 2020, published 2023).

Columns and labels:
[1] = tested on: medulloblastoma cells from Ptch1−/− mice; assay: Medulloblastoma cell proliferation, 48 h treatment (Ki67 immunocytochemistry); format: cell-based, mouse
Description: (§1) To examine the functions of exosomes in medulloblastoma cell proliferation, tumor cells from Ptch1^−/− mice were isolated and treated with GW4869 or DMSO for 48 hours. […] To determine whether tumor cell-derived exosomes mediate vismodegib resistance, exosomes from medulloblastoma cells were collected and treated with 200 nM of vismodegib for 48 hours. Medulloblastoma cells from Ptch1^−/− mice were treated with DMSO, vismodegib, or vismodegib together with tumor cell-derived exosomes for 48 hours. Following treatment, medulloblastoma cells were harvested to examine their proliferation by immunocytochemistry (see, FIG. 4). […] Finally, exosomes from medulloblastoma cells were harvested and treated with DMSO or vismodegib for 48 hours.

[2] = tested on: MB-luciferase cells injected into the cerebellum; assay: In vivo bioluminescence imaging of MB-luciferase tumor growth in NSG mice; parameters: species or system mouse
Description: MB-luciferase cells were generated and stereotaxically injected into the cerebellum of 6- to 8-week-old NSG mice. Animals were monitored weekly using in vivo bioluminescence imaging and bioluminescence was detected as Day 0. The tumor-bearing mice were treated with vismodegib (50 mg/kg) for 7 days. These mice were separated into two groups randomly, one group was treated with a vehicle and another group was treated with GW4869 (1.25 mg/kg per day) for 3 weeks (FIG. 9A). They were monitored weekly using in vivo bioluminescence imaging (FIG. 9B).

[3] = tested on: Gli1 mRNA (shh signaling) in medulloblastoma cells; assay: Gli1 mRNA levels in MB cells by q-PCR; format: cell-based, mouse; details: MB cells after 48 hours treatment
Description: as §1

[4] = tested on: Ras protein in exosomes derived from medulloblastoma cells; assay: Western blotting of Ras in exosomes from treated MB cells; format: cell-based, mouse; details: exosomes from MB cells treated with DMSO or vismodegib for 48 hours
Description: as §1

Compound	medulloblastoma cell proliferation ([1]; tumor cells from Ptch1−/− mice, GW4869 vs DMSO, data not shown)	tumor growth (bioluminescence) after 28 days, with vs without GW4869 ([2]; after vismodegib 50 mg/kg 7 days, GW4869 1.25 mg/kg per day 3 weeks vs vehicle, p<0.05)	Gli1 mRNA levels [3]	medulloblastoma cell proliferation (Ki67+ cells) ([1]; MB cells from Ptch1−/− mice, DMSO vs vismodegib vs vismodegib + exosomes, exosome-donor cells vismodegib 200 nM)	Ras protein in exosomes [4]	tumor growth (bioluminescence) ([2]; vismodegib 50 mg/kg for 7 days)
Cl.Cl.O=C(C=Cc1ccc(C=CC(=O)Nc2ccc(C3=NCCN3)cc2)cc1)Nc1ccc(C2=NCCN2)cc1 [GW4869, N,N′-Bis[4-(4,5-dihydro-1H-imidazol-2-yl)phenyl]-3,3′-p-phenylene-bis-acrylamide dihydrochloride]	significantly repressed medulloblastoma cell proliferation	significant difference	–	–	–	–
CS(=O)(=O)c1ccc(C(=O)Nc2ccc(Cl)c(-c3ccccn3)c2)c(Cl)c1 [vismodegib]	–	–	decreased	significantly repressed tumor cell proliferation	readily detected	significantly reduce tumor growth
